Each structure is given as a SMILES string.

A short description of this data set: Metabolic stability in mouse liver microsomes. In kind it is ADME, Microsome.
In the case of `COC(=O)N1CCN(C2CCN(c3cc(C)c4nc(-c5c(NC[C@@H](O)c6cccc(Cl)c6)cc[nH]c5=O)[nH]c4c3)CC2)CC1`, the Stability is < 0.1 nmol/min/mg.
The compound `Cc1cc(N2CCC(O)CC2)cc2[nH]c(-c3c(NC[C@@H](O)c4cccc(Cl)c4)cc[nH]c3=O)nc12` displayed a Stability of 0.1 nmol/min/mg.
As for `Cc1cc(N2CCC(N3CCN(C(=O)OCCO)CC3)CC2)cc2[nH]c(-c3c(NC[C@@H](O)c4cccc(Cl)c4)cc[nH]c3=O)nc12`, the figure is < 0.1 nmol/min/mg; as for `Cc1cc(N2CCC(N3CCN(C)CC3)CC2)cc2[nH]c(-c3c(NC[C@@H](O)c4cccc(Cl)c4)cc[nH]c3=O)nc12`, < 0.1 nmol/min/mg.
As to `COCCOCC(=O)N1CCN(C2CCN(c3cc(C)c4nc(-c5c(NC[C@@H](O)c6cccc(Cl)c6)cc[nH]c5=O)[nH]c4c3)CC2)CC1`, the Stability was < 0.1 nmol/min/mg.
As for `COCC(=O)N1CCN(C2CCN(c3cc(C)c4nc(-c5c(NC[C@@H](O)c6cccc(Cl)c6)cc[nH]c5=O)[nH]c4c3)CC2)CC1`, the figure is < 0.1 nmol/min/mg; as for `COCCOC1CCN(c2cc(C)c3nc(-c4c(NC[C@@H](O)c5cccc(Cl)c5)cc[nH]c4=O)[nH]c3c2)CC1`, 0.1 nmol/min/mg.
To `Cc1cc(N2CCOCC2)cc2[nH]c(-c3c(NC[C@@H](O)c4cccc(Cl)c4)cc[nH]c3=O)nc12` belongs 0.1 nmol/min/mg; to `Cc1cc(N2CCC(N3CCN(C(=O)C4CC4)CC3)CC2)cc2[nH]c(-c3c(NC[C@@H](O)c4cccc(Cl)c4)cc[nH]c3=O)nc12`, < 0.1 nmol/min/mg; to `COC(=O)NC1CCN(c2cc(C)c3nc(-c4c(NC[C@@H](O)c5cccc(Cl)c5)cc[nH]c4=O)[nH]c3c2)CC1`, 0.1 nmol/min/mg.
As to `Cc1cc(N2CCC(NC(=O)C3CC3)CC2)cc2[nH]c(-c3c(NC[C@@H](O)c4cccc(Cl)c4)cc[nH]c3=O)nc12`, the Stability worked out at 0.1 nmol/min/mg.
To `Cc1cc(N2CCC(N3CCN(C(=O)N4CCN(C)CC4)CC3)CC2)cc2[nH]c(-c3c(NC[C@@H](O)c4cccc(Cl)c4)cc[nH]c3=O)nc12` belongs < 0.1 nmol/min/mg.
On to `COC1CCN(c2cc(C)c3nc(-c4c(NC[C@@H](O)c5cccc(Cl)c5)cc[nH]c4=O)[nH]c3c2)CC1`, for which the Stability was > 0.2 nmol/min/mg.
Regarding `Cc1cc(N2CCC(N3CCOCC3)CC2)cc2[nH]c(-c3c(NC[C@@H](O)c4cccc(Cl)c4)cc[nH]c3=O)nc12`, the Stability was 0.1 nmol/min/mg.
As for `Cc1cc(N2CCC(OCCO)CC2)cc2[nH]c(-c3c(NC[C@@H](O)c4cccc(Cl)c4)cc[nH]c3=O)nc12`, the figure is > 0.2 nmol/min/mg; as for `Cc1cc(N2CCC3(CC2)OCCO3)cc2[nH]c(-c3c(NC[C@@H](O)c4cccc(Cl)c4)cc[nH]c3=O)nc12`, 0.1 nmol/min/mg.
As for `COCCOC(=O)N1CCN(C2CCN(c3cc(C)c4nc(-c5c(NC[C@@H](O)c6cccc(Cl)c6)cc[nH]c5=O)[nH]c4c3)CC2)CC1`, the figure is < 0.1 nmol/min/mg; as for `Cc1cc(N2CCC(N3C[C@@H](C)O[C@@H](C)C3)CC2)cc2[nH]c(-c3c(NC[C@@H](O)c4cccc(Cl)c4)cc[nH]c3=O)nc12`, < 0.1 nmol/min/mg; as for `CC(=O)N1CCN(C2CCN(c3cc(C)c4nc(-c5c(NC[C@@H](O)c6cccc(Cl)c6)cc[nH]c5=O)[nH]c4c3)CC2)CC1`, < 0.1 nmol/min/mg.
As for `Cc1cc(N2CCC(N3CCN(C(=O)N4CCOCC4)CC3)CC2)cc2[nH]c(-c3c(NC[C@@H](O)c4cccc(Cl)c4)cc[nH]c3=O)nc12`, the figure is < 0.1 nmol/min/mg.

The record behind these values is ChEMBL document CHEMBL1155068, “Balancing oral exposure with Cyp3A4 inhibition in benzimidazole-based IGF-IR inhibitors” (Bioorg Med Chem Lett, 2008).
